The text below walks through data of ChEMBL document CHEMBL3576801, “Praeruptorin A inhibits in vitro migration of preosteoclasts and in vivo bone erosion, possibly due to its potential to target calmodulin” (J Nat Prod, 2015).

Activity calls are given as the source filed them. The calls are words filed in the database; no cut-off is given here.

Series [1] concerns Mus musculus. The series can be described thus: Antiresorptive activity in ICR mouse assessed as inhibition of LPS-induced cancellous bone loss in distal metaphysis at 2 to 4 mg/kg, ip administered for 8 days with LPS challenge on day 2 and 5 measured on day 9 by microCT analysis. In kind it is functional, organism-based.
For series [2], the target named is Calmodulin-1 (Mus musculus) (UniProt P0DP26). In words: Binding affinity to Ca2+/calmodulin complex in preosteoclast derived from ICR mouse bone marrow-derived macrophages assessed as inhibition of RANKL-induced alphaV-integrin mRNA expression at 10 uM preincubated for 30 mins with M-CSF followed by RANKL induction measured after 3 hrs by real-time PCR analysis.

Series [3] shares this target. The series can be described thus: Binding affinity to Ca2+/calmodulin complex in preosteoclast derived from ICR mouse bone marrow-derived macrophages assessed as inhibition of NFATc1 nuclear translocation at 0.3 to 10 uM preincubated for 30 mins with M-CSF followed by RANKL induction measured after 30 mins by Western blot analysis.
For series [4], the target named is T1, Tumor necrosis factor ligand superfamily member 11 (Mus musculus) (UniProt O35235).
T1 sequence (whole entry): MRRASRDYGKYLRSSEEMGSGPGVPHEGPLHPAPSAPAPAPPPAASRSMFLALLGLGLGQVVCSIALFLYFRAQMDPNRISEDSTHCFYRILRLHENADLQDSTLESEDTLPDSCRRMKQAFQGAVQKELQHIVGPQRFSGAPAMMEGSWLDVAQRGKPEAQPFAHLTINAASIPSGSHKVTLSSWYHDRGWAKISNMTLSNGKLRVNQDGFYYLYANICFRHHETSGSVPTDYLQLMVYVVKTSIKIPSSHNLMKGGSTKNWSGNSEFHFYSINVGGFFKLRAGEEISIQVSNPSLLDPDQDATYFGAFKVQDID
In words: Inhibition of RANKL-induced migration of preosteoclast derived from ICR mouse bone marrow-derived macrophages after 8 hrs by Boyden chamber assay. In kind it is functional, cell-based. The settings on record: Osteoclast.

Series [5] deals with Calmodulin (Bos taurus) (UniProt P62157). In words: Binding affinity to bovine brain calmodulin at 0.1 mM after 60 mins by gel mobility shift assay in presence of EGTA.
The test system of series [6] is Mus musculus. The series can be described thus: Antiresorptive activity in ICR mouse assessed as inhibition of LPS-induced changes in bone mineral density at 2 to 4 mg/kg, ip administered for 8 days with LPS challenge on day 2 and 5 measured on day 9 by histomorphometric analysis. In kind it is functional, organism-based.
Series [7] concerns Mus musculus. In words: Antiresorptive activity in ICR mouse assessed as inhibition of LPS-induced changes in trabecular separation at 2 to 4 mg/kg, ip administered for 8 days with LPS challenge on day 2 and 5 measured on day 9 by histomorphometric analysis. Format: functional, organism-based. The settings on record: Trabecula.
Series [8] has as its target Calmodulin-1 (Mus musculus) (UniProt P0DP26). In words: Binding affinity to Ca2+/calmodulin complex in preosteoclast derived from ICR mouse bone marrow-derived macrophages assessed as inhibition of CaMK-4 phosphorylation at T196 preincubated for 30 mins with M-CSF followed by RANKL induction measured after 30 mins by Western blot analysis.
Series [9] has as its system Mus musculus. The series can be described thus: Antiresorptive activity in ICR mouse assessed as reduction of LPS-induced trabecular bone loss at 2 to 4 mg/kg, ip administered for 8 days with LPS challenge on day 2 and 5 measured on day 9 by hematoxylin and eosin staining. Format: functional, organism-based. The following applies: Trabecula.
For series [10], the target named is Calmodulin-1 (Mus musculus) (UniProt P0DP26). The series can be described thus: Binding affinity to Ca2+/calmodulin complex in preosteoclast derived from ICR mouse bone marrow-derived macrophages assessed as inhibition of RANKL-induced NFATc1 mRNA expression at 10 uM preincubated for 30 mins with M-CSF followed by RANKL induction measured after 3 hrs by real-time PCR analysis.

Series [11] addresses Calmodulin (Bos taurus) (UniProt P62157). In words: Binding affinity to bovine brain calmodulin at 0.1 mM after 60 mins by gel mobility shift assay in presence of CaCl2.
The target in series [12] is Calmodulin-1 (Mus musculus) (UniProt P0DP26). In words: Binding affinity to Ca2+/calmodulin complex in preosteoclast derived from ICR mouse bone marrow-derived macrophages assessed as inhibition of CREB phosphorylation at S133 preincubated for 30 mins with M-CSF followed by RANKL induction measured after 30 mins by Western blot analysis.
The target is the same in series [13]. In words: Binding affinity to Ca2+/calmodulin complex in preosteoclast derived from ICR mouse bone marrow-derived macrophages assessed as inhibition of RANKL-induced NFATc1 nuclear translocation at 10 uM preincubated for 30 mins with M-CSF followed by RANKL induction measured after 3 to 7 hrs by Western blot analysis.
In series [14] the test system is Mus musculus. In words: Antiresorptive activity in ICR mouse assessed as inhibition of LPS-induced changes in trabecular number at 2 to 4 mg/kg, ip administered for 8 days with LPS challenge on day 2 and 5 measured on day 9 by histomorphometric analysis. The settings on record: Trabecula. Format: functional, organism-based.
Series [15] has as its target T1, Tumor necrosis factor ligand superfamily member 11 (Mus musculus). In words: Inhibition of RANKL-induced fusion of preosteoclast derived from ICR mouse bone marrow-derived macrophages assessed as formation of tartrate-resistant acid phosphatase-positive multinucleated osteoclast preincubated for 30 mins with M-CSF followed by RANKL induction measured after 1 day by TRAP staining. In kind it is functional, cell-based.

Series [16] addresses Calmodulin-1 (Mus musculus) (UniProt P0DP26). The series can be described thus: Binding affinity to Ca2+/calmodulin complex in preosteoclast derived from ICR mouse bone marrow-derived macrophages assessed as inhibition of RANKL-induced cathepsin K mRNA expression at 10 uM preincubated for 30 mins with M-CSF followed by RANKL induction measured after 3 hrs by real-time PCR analysis.

Series [17] has as its target Calmodulin-1 (Homo sapiens) (UniProt P0DP23). In words: Binding affinity to recombinant human calmodulin assessed as inhibition of calcineurin phosphatase activity using R2 phosphopeptide substrate at 3 to 10 uM after 30 mins by malachite green staining-based colorimetric analysis in presence of CaCl2.
Series [18] has as its system Mus musculus. The series can be described thus: Antiresorptive activity in ICR mouse assessed as inhibition of LPS-induced changes in bone surface/tissue volume at 2 to 4 mg/kg, ip administered for 8 days with LPS challenge on day 2 and 5 measured on day 9 by histomorphometric analysis. Format: functional, organism-based.
In series [19] the test system is Mus musculus. In words: Antiresorptive activity in ICR mouse assessed as inhibition of LPS-induced changes in bone volume/tissue volume at 2 to 4 mg/kg, ip administered for 8 days with LPS challenge on day 2 and 5 measured on day 9 by histomorphometric analysis. In kind it is functional, organism-based.
The target in series [20] is Calmodulin-1 (Mus musculus) (UniProt P0DP26). In words: Binding affinity to Ca2+/calmodulin complex in preosteoclast derived from ICR mouse bone marrow-derived macrophages assessed as inhibition of RANKL-induced DC-STAMP mRNA expression at 10 uM preincubated for 30 mins with M-CSF followed by RANKL induction measured after 3 hrs by real-time PCR analysis.
The subject of series [21] is Mus musculus. The series can be described thus: Antiresorptive activity in ICR mouse assessed as inhibition of LPS-induced changes in trabecular thickness at 2 to 4 mg/kg, ip administered for 8 days with LPS challenge on day 2 and 5 measured on day 9 by histomorphometric analysis. Format: functional, organism-based. The following applies: Trabecula.
Series [22] can be described thus: Cytotoxicity against preosteoclast derived from ICR mouse bone marrow-derived macrophages assessed as cell viability at 0.1 to 10 uM after 1 day by CCK-8 assay. The following applies: osteoclast, 24 h. In kind it is cell-based.
For series [23], the target named is Calmodulin-1 (Mus musculus) (UniProt P0DP26). In words: Binding affinity to Ca2+/calmodulin complex in preosteoclast derived from ICR mouse bone marrow-derived macrophages assessed as inhibition of RANKL-induced c-Fos mRNA expression at 10 uM preincubated for 30 mins with M-CSF followed by RANKL induction measured after 3 hrs by real-time PCR analysis.
Series [24] shares this target. In words: Binding affinity to Ca2+/calmodulin complex in preosteoclast derived from ICR mouse bone marrow-derived macrophages assessed as inhibition of RANKL-induced ATP6v0d2 mRNA expression at 10 uM preincubated for 30 mins with M-CSF followed by RANKL induction measured after 3 hrs by real-time PCR analysis.

Turning to `C/C=C(/C)C(=O)O[C@@H]1[C@@H](OC(C)=O)c2c(ccc3ccc(=O)oc23)OC1(C)C`, the inhibition result in series [1], in series [2], in series [3], in series [6], in series [7] and in series [10] was “Active” each time. Also, the inhibition result in series [13], in series [14], in series [16], in series [17], in series [18] and in series [19] was “Active” each time. For the same molecule, the inhibition entry in series [20], in series [21], in [23] and in [24] was “Active” each time. The inhibition entry in series [4], in series [8], in [12] and in series [15] was “Dose-dependent effect” throughout. In addition, in series [5], the result was inactive. Further, the result in series [9] and in series [11] was Active. Further, in series [22], the Activity result is given as “Non-toxic”.
